Results: article PMC12298827, “Subchronic Toxicities of Four Per- and Polyfluoroalkyl Substances (PFASs) by Oral Exposure in Sprague–Dawley Rats” (Toxics, 2025)
Marks after values point to notes of the source that are not given here.

Test system: male and female Sprague–Dawley rats
Assay: 90-day subchronic oral gavage toxicity study
Format: in vivo, rat
Method: Subchronic (90-day) studies were performed in accordance with current U.S. EPA’s Toxic Substances Control Act Good Laboratory Practice (GLP) Standards, with the following two general exceptions to the GLP guidelines: Analysis of the dose formulations was conducted according to RTI-approved Standard Operating Procedures, and corn oil (the vehicle) was not characterized (certificate of analysis from the vendor is available in the appendices to the final reports). Male and female Sprague–Dawley rats (five dose levels plus a control, n = 10/sex/dose group, corn oil vehicle dose volume of 3 mL/kg; oral gavage) were used in these studies, and the rats were euthanized on SD 91. The dose levels for PFHI were 0, 12.5, 25, 50, 100, and 200 mg/kg-day. The dose levels for MHFPK were 0, 18.8, 37.5, 75, 150, and 300 mg/kg-day. The dose levels for PFNAC were 0, 0.1, 0.3, 1.0, 3.0, and 10 mg/kg-day for male rats and 0, 0.3, 1.0, 3.0, 10, and 30 mg/kg-day for female rats. For CTFPA, the dose levels were 0, 1.9, 3.8. 7.5, 15, and 30 mg/kg-day for male rats and 0, 6.3, 12.5, 25, 50, and 100 mg/kg-day for female rats. For each PFAS, three batches of dosing solution were prepared. The time between the batch preparation of the dosing solutions ranged between 29 and 39 days. Blood samples were collected from all the rats at termination for serum chemistry, hematology, coagulation, and the analysis of the parent PFAS chemical in the plasma. In vivo data collection and further detail on the endpoints examined postmortem are described below.
The rats were observed twice daily for morbidity and mortality throughout the study period. At least once prior to randomization to test groups and weekly thereafter, the rats were physically examined, and bodyweights were obtained. Feed consumption was quantified weekly starting on SD 1.
Neurotoxicity was evaluated using the functional observational battery (FOB) and measuring locomotor activity (LMA) 2–4 h post dosing on SDs 78–80 and 80–84, respectively. For both the 14- and 90-day studies, an ophthalmologic examination was conducted prior to randomization and near the end of the study, using indirect ophthalmoscopy and slit–lamp biomicroscopy (as needed) after the administration of a mydriatic solution.
Hematology, biochemistry, and coagulation endpoints were measured at the termination of the study. A Siemens Advia 2120i hematology analyzer (Siemens Healthineers, Erlangen, Germany) was used to measure (or calculate) the parameters related to the complete blood count, leukocyte differential count, and reticulocyte count. The hematology parameters are listed and described in Table 2. The prothrombin time […] and activated partial thromboplastin time (APTT) were measured using an Instrumentation Laboratory (Bedford, MA, USA) ACL Elite Pro coagulation analyzer (laser–nephelometric centrifugal method).
At necropsy, the rats were visually examined for external abnormalities and organ weights (absolute and relative to the BW and brain weight), which were recorded (paired organs weighed together). The tissues were preserved in 10% neutral buffered formalin (NBF), except for the ocular tissues, testes, and epididymides, which were preserved in modified Davidson’s fixative and later transferred to 10% NBF. Bone marrow smears were prepared from the femurs, and the slides were air-dried, fixed in methanol, stained, and stored at room temperature for possible future evaluation. The preserved tissues were embedded in paraffin, sectioned, stained with hematoxylin and eosin, and examined by a board-certified veterinary pathologist.
Statistical analysis was performed using Provantis™ Version 10 or greater (Instem LSS, Limited; Stone, Staffordshire, UK). Differences among the treatment groups compared to the control were evaluated using one-way analysis of variance (ANOVA) if the underlying assumptions of a normal distribution (Shapiro–Wilk test) and the homogeneity of the variance (Levene’s test) were satisfied. […]

Question: For `C=CC(=O)OCC(F)(F)C(F)(F)C(F)(F)C(F)(F)C(F)(F)C(F)(F)C(F)(F)C(F)F` [PFNAC, 1H,1H,9H-Perfluorononyl acrylate], which “Bodyweight (BW) and bodyweight gain” value (90-day, both sexes, all doses) is on record?
Answer: None in females; effects in males at 10 mg/kg-day were not considered adverse because they did not persist through the study (days 8–29)

Question: And the Clinical observations (90-day, both sexes, all doses)?
Answer: None

Question: And the Coagulation endpoints (90-day, both sexes, all doses)?
Answer: Males at ≥1 mg/kg-day, mildly shortened APTT, not considered as biologically significant

Question: And the Feed consumption (90-day, both sexes, all doses)?
Answer: Increased in males and females in some dose groups during some time periods, not considered as adverse (not persistent or consistent although sometimes statistically significant)

Question: What about the Functional observational battery (90-day, both sexes, all doses) of the same compound?
Answer: Some changes, all considered as incidental and non-adverse

Question: And the Gross lesions (90-day, both sexes, all doses)?
Answer: None considered as PFNAC related

Question: What about the Hematology (90-day, both sexes, all doses) of the same compound?
Answer: No changes in females; Males—minimal decreases in red cell mass (HGB, HCT, and RBC) at ≥0.1 mg/kg-day, minimal decreases in absolute reticulocytes at ≥1 mg/kg and from minimal to mild decreases in neutrophils and eosinophils at ≥0.1 mg/kg-day ^2

Question: What about the Histopathology (90-day, both sexes, all doses) of the same compound?
Answer: The kidney and liver ^4 of males at ≥0.3 mg/kg-day and females at 30 mg/kg-day; the thyroid gland in males

Question: What about the Locomotor activity (90-day, both sexes, all doses) of the same compound?
Answer: No effects

Question: And the Morbidity and mortality (90-day, both sexes, all doses)?
Answer: None

Question: What about the Ophthalmology (90-day, both sexes, all doses) of the same compound?
Answer: No ocular lesions

Question: What about the Organ weight changes (90-day, both sexes, all doses) of the same compound?
Answer: Mean absolute and/or relative organ weight increases in the liver and kidneys of males at ≥0.3 mg/kg-day and females at ≥3 mg/kg-day

Question: What about the “BMD10, absolute kidney weight increase” value (female) of the same compound?
Answer: 13.4 mg/kg-day

Question: What about the “BMD10, absolute liver weight increase” value (female) of the same compound?
Answer: 11.2 mg/kg-day

Question: What about the “BMD10, relative kidney weight increase” value (female) of the same compound?
Answer: 6.0 mg/kg-day

Question: And the “BMD10, relative liver weight increase” value (female)?
Answer: 12.8 mg/kg-day

Question: And the “BMDL, absolute kidney weight increase” value (female)?
Answer: 2.68 mg/kg-day

Question: And the “BMDL, absolute liver weight increase” value (female)?
Answer: 8.8 mg/kg-day

Question: What about the “BMDL, relative kidney weight increase” value (female) of the same compound?
Answer: 0.8 * mg/kg-day

Question: And the “BMDL, relative liver weight increase” value (female)?
Answer: 10.1 mg/kg-day

Question: What about the “LOEL, absolute kidney weight increase” value (female) of the same compound?
Answer: 10 mg/kg-day

Question: What about the “LOEL, absolute liver weight increase” value (female) of the same compound?
Answer: 30 mg/kg-day

Question: And the “LOEL, relative kidney weight increase” value (female)?
Answer: 3 mg/kg-day

Question: What about the “LOEL, relative liver weight increase” value (female) of the same compound?
Answer: 30 mg/kg-day

Question: And the “NOEL, absolute kidney weight increase” value (female)?
Answer: 3 mg/kg-day

Question: And the “NOEL, absolute liver weight increase” value (female)?
Answer: 10 mg/kg-day

Question: And the “NOEL, relative kidney weight increase” value (female)?
Answer: 1 mg/kg-day

Question: What about the “NOEL, relative liver weight increase” value (female) of the same compound?
Answer: 10 mg/kg-day

Question: And the A/G (female, 0.1 mg/kg-day)?
Answer: 1.11±0.08 ratio

Question: What about the ALB (female, 0.1 mg/kg-day) of the same compound?
Answer: 4.36 ± 0.22 g/dL

Question: And the ALPi (female, 0.1 mg/kg-day)?
Answer: 78.0±24.1 U/L

Question: And the BUN (female, 0.1 mg/kg-day)?
Answer: 15.7 ± 1.3 mg/dL

Question: And the CHOL (female, 0.1 mg/kg-day)?
Answer: 102.1 ± 16.7 mg/dL

Question: And the GLOB (female, 0.1 mg/kg-day)?
Answer: 3.93 ± 0.12 g/dL

Question: And the GLUC (female, 0.1 mg/kg-day)?
Answer: 99.4 ± 11.9 mg/dL

Question: What about the “% BW Gain” value (female, 0.3 mg/kg-day) of the same compound?
Answer: 47.16%

Question: What about the “% Diff, % BW Gain” value (female, 0.3 mg/kg-day) of the same compound?
Answer: -3.35%

Question: And the “% Diff, Total BW change” value (female, 0.3 mg/kg-day)?
Answer: -2.86%

Question: What about the “% Diff, Total Food Consumed” value (female, 0.3 mg/kg-day) of the same compound?
Answer: 4.16%

Question: What about the A/G (female, 0.3 mg/kg-day) of the same compound?
Answer: 1.10±0.06 ratio

Question: What about the ABEOS (female, 0.3 mg/kg-day) of the same compound?
Answer: 0.089±0.035 K/µL

Question: And the ABNEUT (female, 0.3 mg/kg-day)?
Answer: 1.725±1.311 K/µL

Question: And the ABRETi (female, 0.3 mg/kg-day)?
Answer: 188.23±26.07 10^9/L

Question: And the ALB (female, 0.3 mg/kg-day)?
Answer: 4.44 ± 0.33 g/dL

Question: And the ALPi (female, 0.3 mg/kg-day)?
Answer: 54.8±10.4 U/L

Question: And the APTT (female, 0.3 mg/kg-day)?
Answer: 21.25 s

Question: What about the BUN (female, 0.3 mg/kg-day) of the same compound?
Answer: 16.8 ± 3.3 mg/dL

Question: What about the CHOL (female, 0.3 mg/kg-day) of the same compound?
Answer: 99.7 ± 15.0 mg/dL

Question: And the GLOB (female, 0.3 mg/kg-day)?
Answer: 4.05 ± 0.18 g/dL

Question: And the GLUC (female, 0.3 mg/kg-day)?
Answer: 104.6 ± 13.0 mg/dL

Question: What about the HCT (female, 0.3 mg/kg-day) of the same compound?
Answer: 41.35±1.64%

Question: And the HGB (female, 0.3 mg/kg-day)?
Answer: 13.21 ± 0.43 g/dL

Question: What about the “Kidney Weight” value (female, 0.3 mg/kg-day) of the same compound?
Answer: 1.74 g

Question: And the “Kidney/Body Weight” value (female, 0.3 mg/kg-day)?
Answer: 0.59%

Question: And the “Kidney/Brain Weight” value (female, 0.3 mg/kg-day)?
Answer: 91.4%

Question: And the “Liver Weight” value (female, 0.3 mg/kg-day)?
Answer: 7.76 g

Question: What about the “Liver/Body Weight” value (female, 0.3 mg/kg-day) of the same compound?
Answer: 2.62%

Question: What about the “Liver/Brain Weight” value (female, 0.3 mg/kg-day) of the same compound?
Answer: 408%

Question: And the MPV (female, 0.3 mg/kg-day)?
Answer: 7.62 ± 0.63 fL

Question: And the PT (female, 0.3 mg/kg-day)?
Answer: 13.79 s

Question: What about the RBC (female, 0.3 mg/kg-day) of the same compound?
Answer: 7.177±0.276 M/µL

Question: And the “Total BW change” value (female, 0.3 mg/kg-day)?
Answer: 98.25 g

Question: What about the “Total Food Consumed” value (female, 0.3 mg/kg-day) of the same compound?
Answer: 1466 g

Question: What about the “% BW Gain” value (female, 1.0 mg/kg-day) of the same compound?
Answer: 45.99%

Question: What about the “% Diff, % BW Gain” value (female, 1.0 mg/kg-day) of the same compound?
Answer: -5.73%

Question: What about the “% Diff, Total BW change” value (female, 1.0 mg/kg-day) of the same compound?
Answer: -6.27%

Question: What about the “% Diff, Total Food Consumed” value (female, 1.0 mg/kg-day) of the same compound?
Answer: 2.64%

Question: And the A/G (female, 1.0 mg/kg-day)?
Answer: 1.13±0.06 ratio

Question: And the ABEOS (female, 1.0 mg/kg-day)?
Answer: 0.086±0.028 K/µL

Question: What about the ABNEUT (female, 1.0 mg/kg-day) of the same compound?
Answer: 1.468±0.616 K/µL

Question: And the ABRETi (female, 1.0 mg/kg-day)?
Answer: 180.48±14.00 10^9/L

Question: And the ALB (female, 1.0 mg/kg-day)?
Answer: 4.43 ± 0.26 g/dL

Question: What about the ALPi (female, 1.0 mg/kg-day) of the same compound?
Answer: 52.1±13.7 U/L

Question: What about the APTT (female, 1.0 mg/kg-day) of the same compound?
Answer: 20.13 s

Question: What about the BUN (female, 1.0 mg/kg-day) of the same compound?
Answer: 13.9 ± 2.0 mg/dL

Question: And the CHOL (female, 1.0 mg/kg-day)?
Answer: 94.3 ± 18.7 mg/dL

Question: And the GLOB (female, 1.0 mg/kg-day)?
Answer: 3.94 ± 0.19 g/dL

Question: What about the GLUC (female, 1.0 mg/kg-day) of the same compound?
Answer: 100.9 ± 12.7 mg/dL

Question: And the HCT (female, 1.0 mg/kg-day)?
Answer: 41.13±1.98%

Question: What about the HGB (female, 1.0 mg/kg-day) of the same compound?
Answer: 13.19 ± 0.73 g/dL
